System: MV-4-11 cells
Experiment: Gene expression microarray analysis (Affymetrix PrimeView) and GSEA
Format: cell-based, human
Set-up: RFU PODN (11730768_x_at) / Fold change /veh PODN (11730768_x_at) / RFU LINC00158 (11744669_a_at) / Fold change /veh LINC00158 (11744669_a_at) / RFU DUSP10 (11751237_a_at) / Fold change /veh DUSP10 (11751237_a_at) / RFU ID3 (11757404_x_at) / Fold change /veh ID3 (11757404_x_at) / RFU PLEKHG5 (11737974_s_at) / Fold change /veh PLEKHG5 (11737974_s_at) / RFU LRRC4B (11730491_at) / Fold change /veh LRRC4B (11730491_at) / RFU GIMAP4 (11747438_a_at) / Fold change /veh GIMAP4 (11747438_a_at) / RFU KRT8 (11758183_x_at) / Fold change /veh KRT8 (11758183_x_at) / RFU CNN1 (11734310_a_at) / Fold change /veh CNN1 (11734310_a_at) / RFU VPS37D (11726825_at) / Fold change /veh VPS37D (11726825_at) / RFU C10orf10 (11716522_x_at) / Fold change /veh C10orf10 (11716522_x_at) / RFU KIR2DL2 /// KIR2DL4 /// KIR2DL5A /// KIR2DL5B /// KIR2DS1 /// KIR2DS2 /// KIR2DS3 /// KIR2DS4 /// KIR3DL3 /// KIR3DL3 /// KIR3DS1 (11738374_at) / Fold change /veh KIR2DL2 /// KIR2DL4 /// KIR2DL5A /// KIR2DL5B /// KIR2DS1 /// KIR2DS2 /// KIR2DS3 /// KIR2DS4 /// KIR3DL3 /// KIR3DL3 /// KIR3DS1 (11738374_at) / RFU C1QL1 (11718748_at) / Fold change /veh C1QL1 (11718748_at) / RFU TMPRSS4 (11747572_a_at) / Fold change /veh TMPRSS4 (11747572_a_at) / RFU HAMP (11756126_x_at) / Fold change /veh HAMP (11756126_x_at) / RFU RNFT2 (11725882_a_at) / Fold change /veh RNFT2 (11725882_a_at) / RFU NR4A2 (11747474_a_at) / Fold change /veh NR4A2 (11747474_a_at) / RFU ABCC12 (11746883_a_at) / Fold change /veh ABCC12 (11746883_a_at) / RFU TMEM136 (11760407_x_at) / Fold change /veh TMEM136 (11760407_x_at) / RFU CLDN22 /// WWC2 (11732394_at) / Fold change /veh CLDN22 /// WWC2 (11732394_at) / RFU HLA-DPB1 (11760878_x_at) / Fold change /veh HLA-DPB1 (11760878_x_at) / RFU SPINT1 (11716480_a_at) / Fold change /veh SPINT1 (11716480_a_at) / RFU GAP43 (11754022_s_at) / Fold change /veh GAP43 (11754022_s_at) / RFU A4GNT (11735810_at) / Fold change /veh A4GNT (11735810_at) / RFU PRB3 (11715151_x_at) / Fold change /veh PRB3 (11715151_x_at) / RFU TUBB4B (11761932_at) / Fold change /veh TUBB4B (11761932_at) / RFU CAPN14 (11732068_a_at) / Fold change /veh CAPN14 (11732068_a_at) / RFU TMCC2 (11721928_a_at) / Fold change /veh TMCC2 (11721928_a_at) / RFU IRGQ (11745062_a_at) / Fold change /veh IRGQ (11745062_a_at) / RFU FAM174B (11720279_a_at) / Fold change /veh FAM174B (11720279_a_at) / RFU TMPRSS4 (11748680_a_at) / Fold change /veh TMPRSS4 (11748680_a_at) / RFU FAM212B (11763350_a_at) / Fold change /veh FAM212B (11763350_a_at) / RFU PLEKHG5 (11743358_a_at) / Fold change /veh PLEKHG5 (11743358_a_at) / RFU ZSCAN30 (11745921_a_at) / Fold change /veh ZSCAN30 (11745921_a_at) / RFU CMKLR1 (11741424_a_at) / Fold change /veh CMKLR1 (11741424_a_at) / RFU LOC101060620 /// MAPK8IP1 (11723275_at) / Fold change /veh LOC101060620 /// MAPK8IP1 (11723275_at) / RFU SPTSSB (11747773_x_at) / Fold change /veh SPTSSB (11747773_x_at) / RFU PRSS12 (11739890_at) / Fold change /veh PRSS12 (11739890_at) / RFU BIN1 (11741810_x_at) / Fold change /veh BIN1 (11741810_x_at) / RFU WNT11 (11732464_a_at) / Fold change /veh WNT11 (11732464_a_at) / RFU C10orf10 (11716521_a_at) / Fold change /veh C10orf10 (11716521_a_at) / RFU C5orf56 (11738089_at) / Fold change /veh C5orf56 (11738089_at) / RFU CYB561 (11721691_x_at) / Fold change /veh CYB561 (11721691_x_at) / RFU ANKRD19P (11752326_a_at) / Fold change /veh ANKRD19P (11752326_a_at) / RFU OR2T12 /// OR2T33 /// OR2T8 (11738714_s_at) / Fold change /veh OR2T12 /// OR2T33 /// OR2T8 (11738714_s_at) / RFU VCAN (11748164_a_at) / Fold change /veh VCAN (11748164_a_at) / RFU JSRP1 (11732532_at) / Fold change /veh JSRP1 (11732532_at) / RFU KRTAP10-11 (11738290_x_at) / Fold change /veh KRTAP10-11 (11738290_x_at) / RFU MYO3A (11730013_a_at) / Fold change /veh MYO3A (11730013_a_at) / RFU EBF3 (11725865_a_at) / Fold change /veh EBF3 (11725865_a_at) / RFU CAMK2N1 (11719241_x_at) / Fold change /veh CAMK2N1 (11719241_x_at) / RFU C5orf56 (11738088_a_at) / Fold change /veh C5orf56 (11738088_a_at) / RFU OLFML3 (11715873_a_at) / Fold change /veh OLFML3 (11715873_a_at) / RFU LOC100653217 /// NTM (11731650_a_at) / Fold change /veh LOC100653217 /// NTM (11731650_a_at) / RFU MAPK11 (11762145_a_at) / Fold change /veh MAPK11 (11762145_a_at) / RFU FIZ1 (11724087_x_at) / Fold change /veh FIZ1 (11724087_x_at) / RFU OASL (11726364_x_at) / Fold change /veh OASL (11726364_x_at) / RFU SOX15 (11748057_x_at) / Fold change /veh SOX15 (11748057_x_at) / RFU CD79A (11719716_a_at) / Fold change /veh CD79A (11719716_a_at) / RFU HIST1H1D (11736915_at) / Fold change /veh HIST1H1D (11736915_at) / RFU CASKIN2 (11723855_a_at) / Fold change /veh CASKIN2 (11723855_a_at) / RFU LOC730098 (11760151_x_at) / Fold change /veh LOC730098 (11760151_x_at) / RFU OR4N2 (11742367_at) / Fold change /veh OR4N2 (11742367_at) / RFU PRRT2 (11749266_a_at) / Fold change /veh PRRT2 (11749266_a_at) / RFU SNX32 (11753110_a_at) / Fold change /veh SNX32 (11753110_a_at) / RFU CDHR5 (11726645_a_at) / Fold change /veh CDHR5 (11726645_a_at) / RFU RCAN1 (11760418_a_at) / Fold change /veh RCAN1 (11760418_a_at) / RFU FAM167A (11723789_a_at) / Fold change /veh FAM167A (11723789_a_at) / RFU FAM26E (11764081_at) / Fold change /veh FAM26E (11764081_at) / RFU ISYNA1 (11749810_s_at) / Fold change /veh ISYNA1 (11749810_s_at) / RFU ACY1 (11761880_at) / Fold change /veh ACY1 (11761880_at) / RFU 11764098_at / Fold change /veh 11764098_at / RFU SAMD14 (11745864_x_at) / Fold change /veh SAMD14 (11745864_x_at) / RFU NPB (11741838_a_at) / Fold change /veh NPB (11741838_a_at) / RFU TMPRSS6 (11731388_a_at) / Fold change /veh TMPRSS6 (11731388_a_at) / RFU KRTAP10-2 (11738614_at) / Fold change /veh KRTAP10-2 (11738614_at) / RFU ARHGAP8 /// PRR5-ARHGAP8 (11727945_x_at) / Fold change /veh ARHGAP8 /// PRR5-ARHGAP8 (11727945_x_at) / RFU KRTAP5-7 /// NADSYN1 (11734609_at) / Fold change /veh KRTAP5-7 /// NADSYN1 (11734609_at) / RFU RASL12 (11751679_a_at) / Fold change /veh RASL12 (11751679_a_at) / RFU CDKN2B (11736163_a_at) / Fold change /veh CDKN2B (11736163_a_at) / RFU PRF1 (11729649_at) / Fold change /veh PRF1 (11729649_at) / RFU, ZNF638 /// ZNF638-IT1 / Fold change vs veh, ZNF638 /// ZNF638-IT1 / RFU, PANK3 / Fold change vs veh, PANK3 / RFU, SH3YL1 / Fold change vs veh, SH3YL1 / RFU, ZEB2 / Fold change vs veh, ZEB2 / RFU, NRIP1 / Fold change vs veh, NRIP1 / RFU, PTTG1IP / Fold change vs veh, PTTG1IP / RFU, CAPN2 / Fold change vs veh, CAPN2 / RFU, MED14 / Fold change vs veh, MED14 / RFU, SNORA58 / Fold change vs veh, SNORA58 / RFU, C1orf63 / Fold change vs veh, C1orf63 / RFU, LRRFIP1 / Fold change vs veh, LRRFIP1 / RFU, NDUFAF7 / Fold change vs veh, NDUFAF7 / RFU, SLC12A2 / Fold change vs veh, SLC12A2 / RFU, IBTK / Fold change vs veh, IBTK / RFU, ESF1 / Fold change vs veh, ESF1 / Fold change vs veh, TMEM50B / RFU, TAOK1 / Fold change vs veh, TAOK1 / RFU, ACBD3 / Fold change vs veh, ACBD3 / RFU, TMA16 / Fold change vs veh, TMA16 / RFU, RWDD3 / Fold change vs veh, RWDD3 / RFU, BCAT1 / Fold change vs veh, BCAT1 / RFU, EDEM3 / Fold change vs veh, EDEM3 / RFU, TMEM33 / Fold change vs veh, TMEM33 / RFU, WDR75 / Fold change vs veh, WDR75 / RFU, AHCTF1 / Fold change vs veh, AHCTF1 / RFU, TFRC / Fold change vs veh, TFRC / RFU, ZDHHC17 / Fold change vs veh, ZDHHC17 / RFU, NOM1 / Fold change vs veh, NOM1 / RFU, ARL8B / Fold change vs veh, ARL8B / RFU, ZBTB11 / Fold change vs veh, ZBTB11 / RFU, TAMM41 / Fold change vs veh, TAMM41 / RFU, KIAA1704 /// LOC100996395 / Fold change vs veh, KIAA1704 /// LOC100996395 / RFU, ING1 / Fold change vs veh, ING1 / RFU, TRMT61B / Fold change vs veh, TRMT61B / RFU, FUBP3 / Fold change vs veh, FUBP3 / RFU, TP53 / Fold change vs veh, TP53 / RFU, TNKS2 / Fold change vs veh, TNKS2 / RFU, ZFP14 / Fold change vs veh, ZFP14 / RFU, ACTR2 / Fold change vs veh, ACTR2 / RFU, PPP3R1 / Fold change vs veh, PPP3R1 / RFU, PIK3R1 / Fold change vs veh, PIK3R1 / RFU, HNRNPA1 / Fold change vs veh, HNRNPA1 / RFU, RNF170 / Fold change vs veh, RNF170 / RFU, ZNF28 / Fold change vs veh, ZNF28 / RFU, RNGTT / Fold change vs veh, RNGTT / RFU, OGT / Fold change vs veh, OGT / RFU, BRD1 / Fold change vs veh, BRD1 / RFU, MARS / Fold change vs veh, MARS / RFU, ZNF655 / Fold change vs veh, ZNF655 / RFU, FAHD1 / Fold change vs veh, FAHD1 / RFU, BDP1 / Fold change vs veh, BDP1 / RFU, LRRCC1 / Fold change vs veh, LRRCC1 / RFU, ARID1A / Fold change vs veh, ARID1A / RFU, ZNF146 / Fold change vs veh, ZNF146 / RFU, ZNF330 / Fold change vs veh, ZNF330 / RFU, GPN3 / Fold change vs veh, GPN3 / RFU, C9orf123 / Fold change vs veh, C9orf123 / RFU, N4BP2L2 / Fold change vs veh, N4BP2L2 / RFU, ARFIP1 / Fold change vs veh, ARFIP1 / RFU, FAM179B / Fold change vs veh, FAM179B / RFU, BCL10 / Fold change vs veh, BCL10 / RFU, UHRF1BP1L / Fold change vs veh, UHRF1BP1L / RFU, BET1 / Fold change vs veh, BET1 / RFU, CNOT2 / Fold change vs veh, CNOT2 / RFU, ZNF268 / Fold change vs veh, ZNF268 / Fold change vs veh, ZNF507 / RFU, DGCR2 / Fold change vs veh, DGCR2 / RFU, WDSUB1 / Fold change vs veh, WDSUB1 / Fold change vs veh, HSP90B1 /// MIR3652 / RFU, ADSS / Fold change vs veh, ADSS / RFU, GK / Fold change vs veh, GK / RFU, ZNF148 / Fold change vs veh, ZNF148 / RFU, TAF9 / Fold change vs veh, TAF9 / RFU, SLC1A5 / Fold change vs veh, SLC1A5 / RFU, SLMO2 / Fold change vs veh, SLMO2 / RFU, ABCC4 / Fold change vs veh, ABCC4 / RFU, LOC101060439 /// RAP1B / Fold change vs veh, LOC101060439 /// RAP1B / RFU, RFX7 / Fold change vs veh, RFX7 / RFU, GTPBP10 / Fold change vs veh, GTPBP10 / RFU, CNEP1R1 / Fold change vs veh, CNEP1R1 / RFU, BIVM-ERCC5 /// ERCC5 / Fold change vs veh, BIVM-ERCC5 /// ERCC5 / RFU, ILF3 / Fold change vs veh, ILF3 / RFU 11762660_at / Fold change /veh 11762660_at / RFU VCAN (11757783_s_at) / Fold change /veh VCAN (11757783_s_at) / RFU DDX43 (11728927_at) / Fold change /veh DDX43 (11728927_at) / RFU KRT8 (11758188_x_at) / Fold change /veh KRT8 (11758188_x_at) / RFU NKD1 (11759106_at) / Fold change /veh NKD1 (11759106_at) / RFU SRD5A1 (11742802_a_at) / Fold change /veh SRD5A1 (11742802_a_at) / RFU TPSAB1 /// TPSB2 (11721975_s_at) / Fold change /veh TPSAB1 /// TPSB2 (11721975_s_at) / RFU GSTM3 (11746129_a_at) / Fold change /veh GSTM3 (11746129_a_at) / RFU IL23R (11737362_x_at) / Fold change /veh IL23R (11737362_x_at) / RFU TMEM51 (11727254_a_at) / Fold change /veh TMEM51 (11727254_a_at) / RFU PIWIL2 (11732686_x_at) / Fold change /veh PIWIL2 (11732686_x_at) / RFU ORM1 (11744905_x_at) / Fold change /veh ORM1 (11744905_x_at) / RFU CCDC152 (11743942_at) / Fold change /veh CCDC152 (11743942_at) / RFU ECM1 (11717891_a_at) / Fold change /veh ECM1 (11717891_a_at) / RFU IL23R (11748794_a_at) / Fold change /veh IL23R (11748794_a_at) / RFU TNFAIP8L3 (11732012_x_at) / Fold change /veh TNFAIP8L3 (11732012_x_at) / RFU MBOAT4 (11741988_at) / Fold change /veh MBOAT4 (11741988_at) / RFU 11764193_at / Fold change /veh 11764193_at / RFU TMEM53 (11763286_at) / Fold change /veh TMEM53 (11763286_at) / RFU MAGEB2 (11727129_at) / Fold change /veh MAGEB2 (11727129_at) / RFU TMEM200A (11744735_a_at) / Fold change /veh TMEM200A (11744735_a_at) / RFU CCDC152 (11751479_a_at) / Fold change /veh CCDC152 (11751479_a_at) / RFU FAM211A (11726209_a_at) / Fold change /veh FAM211A (11726209_a_at) / RFU RGS16 (11746705_a_at) / Fold change /veh RGS16 (11746705_a_at) / RFU VCAN (11755009_s_at) / Fold change /veh VCAN (11755009_s_at) / RFU RHOB (11743442_s_at) / Fold change /veh RHOB (11743442_s_at) / RFU RGS16 (11720943_a_at) / Fold change /veh RGS16 (11720943_a_at) / RFU RGS16 (11720944_at) / Fold change /veh RGS16 (11720944_at) / RFU, VPS4B / Fold change vs veh, VPS4B / RFU, CREB1 / Fold change vs veh, CREB1 / RFU, DNAJC13 / Fold change vs veh, DNAJC13 / RFU, GNAQ / Fold change vs veh, GNAQ / RFU, CDK5R1 / Fold change vs veh, CDK5R1 / RFU, ZRANB3 / Fold change vs veh, ZRANB3 / RFU, CUL4A / Fold change vs veh, CUL4A / RFU, CCNY / Fold change vs veh, CCNY / RFU, UFL1 / Fold change vs veh, UFL1 / RFU, COG3 / Fold change vs veh, COG3 / RFU, DIAPH2 / Fold change vs veh, DIAPH2 / RFU, SKA2 / Fold change vs veh, SKA2 / RFU, AFF3 / Fold change vs veh, AFF3 / RFU, LMF1 / Fold change vs veh, LMF1 / RFU, IPO11 / Fold change vs veh, IPO11 / RFU, DFFB / Fold change vs veh, DFFB / RFU, FOXP1 / Fold change vs veh, FOXP1 / RFU, CARD8 / Fold change vs veh, CARD8 / RFU, STRN3 / Fold change vs veh, STRN3 / RFU, ADK / Fold change vs veh, ADK / RFU, RASSF2 / Fold change vs veh, RASSF2 / RFU, WIPF1 / Fold change vs veh, WIPF1 / RFU, LARP1B / Fold change vs veh, LARP1B / RFU, RASA1 / Fold change vs veh, RASA1 / RFU, RB1 / Fold change vs veh, RB1 / RFU, PPFIA1 / Fold change vs veh, PPFIA1 / RFU, MAT2A / Fold change vs veh, MAT2A / RFU, CCT5 / Fold change vs veh, CCT5 / RFU, WDR92 / Fold change vs veh, WDR92 / RFU, CUX1 / Fold change vs veh, CUX1 / RFU, TTC7A / Fold change vs veh, TTC7A / RFU, TMEM135 / Fold change vs veh, TMEM135 / RFU, DEPTOR / Fold change vs veh, DEPTOR / RFU, CPM / Fold change vs veh, CPM / RFU, DNAJB6 / Fold change vs veh, DNAJB6 / RFU, CACNA2D3 / Fold change vs veh, CACNA2D3 / RFU, DTX4 / Fold change vs veh, DTX4 / RFU, TFCP2 / Fold change vs veh, TFCP2 / RFU, GMCL1 /// GMCL1P1 / Fold change vs veh, GMCL1 /// GMCL1P1 / RFU, AEBP2 / Fold change vs veh, AEBP2 / RFU, SNHG1 /// SNORD22 /// SNORD25 /// SNORD26 /// SNORD27 /// SNORD28 /// SNORD29 /// SNORD31 / Fold change vs veh, SNHG1 /// SNORD22 /// SNORD25 /// SNORD26 /// SNORD27 /// SNORD28 /// SNORD29 /// SNORD31 / Fold change (Aza/veh), C12orf56 (ProbeSet 11735607_a_at) / Fold change (ACY-1035/veh), C12orf56 (ProbeSet 11735607_a_at) / Fold change (Aza/veh), FGFR1OP (ProbeSet 11751329_s_at) / Fold change (ACY-1035/veh), FGFR1OP (ProbeSet 11751329_s_at) / Fold change (Aza/veh), VPS36 (ProbeSet 11739960_a_at) / Fold change (ACY-1035/veh), VPS36 (ProbeSet 11739960_a_at) / RFU SYPL1 (11715823_x_at) / Fold change /veh SYPL1 (11715823_x_at) / RFU IGFBP7 (11715501_s_at) / Fold change /veh IGFBP7 (11715501_s_at) / RFU REEP3 (11722064_at) / Fold change /veh REEP3 (11722064_at) / RFU IGLL1 (11728026_x_at) / Fold change /veh IGLL1 (11728026_x_at): dose or concentration left out as unconfirmed
Conditions: MV-4-11 cells, 48 hours

Nc1ncn([C@@H]2O[C@H](CO)[C@@H](O)[C@H]2O)c(=O)n1 [azacitidine]
RFU ANKRD19P (11752326_a_at): 6.34 RFU

Reference: article PMC5218480 (PLoS ONE, 2017)
